Holding throughout (test): biochemical
Holding throughout (set-up): KINOMEscan competition binding panel (Eurofins DiscoverX), single concentration, percent inhibition
Details in all cases: read-out: 15 at 1 µM % inhibition

In one test the target is T1, NDR2 (Homo sapiens, UniProt Q9Y2H1).
T1 construct: gene STK38L
As to the method: (§1) KinomeScan® Assay on 7 and 15 was performed as previously described by EuroFins DiscoverX [24]. GSK114 (7) and 15 were submitted for a KINOMEscan® assay to explore the selectivity profile across >400 human kinases at a compound concentration of 1 µM. […] GSK114 (7) is a narrow-spectrum TNNi3K inhibitor but has some potent off-targets including GAK which has been previously reported for this chemotype. […] If utilized together this set of compounds could be useful to investigate TNNi3K biology.

A further test concerns the target ERBB3 (Homo sapiens, UniProt P21860). As to the method:
as §1

The target in another test is T2, SgK110 (Homo sapiens, UniProt P0C264).
T2 construct: gene SBK3
As for the experimental part:
as §1

Another test deals with PIK3CA(H1047Y) (Homo sapiens, UniProt P42336, H1047Y). As to the method: as §1
Another test addresses T3, MRCKA (Homo sapiens, UniProt Q5VT25).
T3 construct: gene CDC42BPA
As to the method:
as §1

A further test has as its target T4, HPK1 (Homo sapiens, UniProt Q92918).
T4 construct: gene MAP4K1
As for the experimental part: as §1

In the next test the target is MYO3A (Homo sapiens, UniProt Q8NEV4). As for the experimental part:
as §1

For a further test, the target named is EPHA4 (Homo sapiens, UniProt P54764). As for the experimental part:
as §1

A further test concerns the target PAK1 (Homo sapiens, UniProt Q13153). As to the method: as §1
Another test deals with ERBB2 (Homo sapiens, UniProt P04626). As for the experimental part:
as §1

The next test deals with CAMK2D (Homo sapiens, UniProt Q13557). As to the method: as §1
For another test, the target named is T5, PFTAIRE2 (Homo sapiens, UniProt Q96Q40).
T5 construct: gene CDK15
As to the method: as §1

A further test deals with IRAK1 (Homo sapiens, UniProt P51617). As for the experimental part:
as §1

The target of the next test is PLK4 (Homo sapiens, UniProt O00444). As to the method:
as §1

The target in the next test is FLT3 (Homo sapiens, UniProt P36888). As for the experimental part: as §1
The next test has as its target IGF1R (Homo sapiens, UniProt P08069). As to the method: as §1
The target in the next test is T6, LZK (Homo sapiens, UniProt O43283).
T6 construct: gene MAP3K13
T6 sequence (O43283 whole entry): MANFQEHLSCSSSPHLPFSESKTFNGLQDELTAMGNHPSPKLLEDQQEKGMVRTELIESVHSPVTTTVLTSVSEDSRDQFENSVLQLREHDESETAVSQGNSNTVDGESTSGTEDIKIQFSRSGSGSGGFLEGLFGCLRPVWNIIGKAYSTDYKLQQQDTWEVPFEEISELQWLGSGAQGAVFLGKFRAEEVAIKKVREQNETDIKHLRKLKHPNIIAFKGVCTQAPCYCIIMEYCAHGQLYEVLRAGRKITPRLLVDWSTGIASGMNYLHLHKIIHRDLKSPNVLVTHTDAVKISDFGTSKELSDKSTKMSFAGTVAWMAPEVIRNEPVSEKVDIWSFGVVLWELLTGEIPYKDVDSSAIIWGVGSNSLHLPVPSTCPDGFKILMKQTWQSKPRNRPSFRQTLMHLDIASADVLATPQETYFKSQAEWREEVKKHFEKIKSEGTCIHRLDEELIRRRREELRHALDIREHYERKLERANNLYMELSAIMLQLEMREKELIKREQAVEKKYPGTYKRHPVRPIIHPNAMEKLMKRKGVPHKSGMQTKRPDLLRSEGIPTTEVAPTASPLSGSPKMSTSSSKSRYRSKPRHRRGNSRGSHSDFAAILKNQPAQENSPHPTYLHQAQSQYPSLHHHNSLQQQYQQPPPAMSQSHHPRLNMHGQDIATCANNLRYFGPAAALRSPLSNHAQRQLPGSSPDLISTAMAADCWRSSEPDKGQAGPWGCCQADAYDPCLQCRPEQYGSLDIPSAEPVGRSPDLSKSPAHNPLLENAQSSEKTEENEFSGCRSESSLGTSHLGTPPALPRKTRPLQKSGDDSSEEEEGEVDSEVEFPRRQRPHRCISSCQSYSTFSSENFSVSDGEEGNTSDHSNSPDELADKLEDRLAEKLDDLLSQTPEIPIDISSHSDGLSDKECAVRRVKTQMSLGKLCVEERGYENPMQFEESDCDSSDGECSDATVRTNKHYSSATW
As for the experimental part: as §1

The target of another test is T7, SIK (Homo sapiens, UniProt P57059).
T7 construct: gene SIK1
As for the experimental part:
as §1

The target of a further test is BMPR1A (Homo sapiens, UniProt P36894). As for the experimental part:
as §1

The target in another test is T8, MEK1 (Homo sapiens, UniProt Q02750).
T8 construct: gene MAP2K1
As for the experimental part:
as §1

For a further test, the target named is SGK3 (Homo sapiens, UniProt Q96BR1). As to the method:
as §1

The target of a further test is LRRK2 (Homo sapiens, UniProt Q5S007). As for the experimental part: as §1
Another test deals with EPHB3 (Homo sapiens, UniProt P54753). As for the experimental part:
as §1

The target in a further test is EGFR(G719C) (Homo sapiens, UniProt P00533, G719C). As for the experimental part: as §1

As usually defined, the inhibition is the change of the read-out against control, counted positive when it falls.

Sequence of ERBB2 (P04626 whole entry): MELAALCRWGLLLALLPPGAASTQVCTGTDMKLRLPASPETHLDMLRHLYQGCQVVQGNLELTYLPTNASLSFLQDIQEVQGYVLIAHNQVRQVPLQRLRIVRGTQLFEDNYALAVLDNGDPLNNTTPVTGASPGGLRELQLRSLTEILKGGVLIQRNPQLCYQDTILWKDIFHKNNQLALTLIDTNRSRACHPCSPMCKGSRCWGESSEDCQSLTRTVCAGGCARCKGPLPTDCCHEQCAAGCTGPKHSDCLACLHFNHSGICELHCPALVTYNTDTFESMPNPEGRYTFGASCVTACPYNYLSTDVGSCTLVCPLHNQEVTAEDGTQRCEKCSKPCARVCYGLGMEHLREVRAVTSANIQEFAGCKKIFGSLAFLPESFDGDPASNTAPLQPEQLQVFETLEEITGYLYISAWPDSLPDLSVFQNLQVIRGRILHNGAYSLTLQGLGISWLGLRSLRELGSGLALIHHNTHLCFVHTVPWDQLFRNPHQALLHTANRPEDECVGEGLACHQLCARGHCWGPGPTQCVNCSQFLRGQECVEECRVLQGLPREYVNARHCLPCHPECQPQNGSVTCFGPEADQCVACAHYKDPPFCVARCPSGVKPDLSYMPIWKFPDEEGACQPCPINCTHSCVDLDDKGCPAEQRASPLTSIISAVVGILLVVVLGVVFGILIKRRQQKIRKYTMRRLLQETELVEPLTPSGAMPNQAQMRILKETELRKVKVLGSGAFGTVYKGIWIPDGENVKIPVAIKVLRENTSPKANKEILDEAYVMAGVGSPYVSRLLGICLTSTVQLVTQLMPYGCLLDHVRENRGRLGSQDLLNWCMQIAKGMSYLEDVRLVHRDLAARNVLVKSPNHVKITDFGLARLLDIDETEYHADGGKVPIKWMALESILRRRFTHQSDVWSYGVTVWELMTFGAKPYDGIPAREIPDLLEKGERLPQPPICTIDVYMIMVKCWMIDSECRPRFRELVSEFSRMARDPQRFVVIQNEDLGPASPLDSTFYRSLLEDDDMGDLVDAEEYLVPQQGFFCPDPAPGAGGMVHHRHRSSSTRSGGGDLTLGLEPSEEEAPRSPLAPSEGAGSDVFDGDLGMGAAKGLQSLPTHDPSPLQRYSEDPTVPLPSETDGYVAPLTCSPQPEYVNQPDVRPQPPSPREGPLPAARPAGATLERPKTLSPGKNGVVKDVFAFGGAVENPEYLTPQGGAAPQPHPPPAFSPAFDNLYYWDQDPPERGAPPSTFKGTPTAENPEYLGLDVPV
Sequence of ERBB3 (P21860 whole entry): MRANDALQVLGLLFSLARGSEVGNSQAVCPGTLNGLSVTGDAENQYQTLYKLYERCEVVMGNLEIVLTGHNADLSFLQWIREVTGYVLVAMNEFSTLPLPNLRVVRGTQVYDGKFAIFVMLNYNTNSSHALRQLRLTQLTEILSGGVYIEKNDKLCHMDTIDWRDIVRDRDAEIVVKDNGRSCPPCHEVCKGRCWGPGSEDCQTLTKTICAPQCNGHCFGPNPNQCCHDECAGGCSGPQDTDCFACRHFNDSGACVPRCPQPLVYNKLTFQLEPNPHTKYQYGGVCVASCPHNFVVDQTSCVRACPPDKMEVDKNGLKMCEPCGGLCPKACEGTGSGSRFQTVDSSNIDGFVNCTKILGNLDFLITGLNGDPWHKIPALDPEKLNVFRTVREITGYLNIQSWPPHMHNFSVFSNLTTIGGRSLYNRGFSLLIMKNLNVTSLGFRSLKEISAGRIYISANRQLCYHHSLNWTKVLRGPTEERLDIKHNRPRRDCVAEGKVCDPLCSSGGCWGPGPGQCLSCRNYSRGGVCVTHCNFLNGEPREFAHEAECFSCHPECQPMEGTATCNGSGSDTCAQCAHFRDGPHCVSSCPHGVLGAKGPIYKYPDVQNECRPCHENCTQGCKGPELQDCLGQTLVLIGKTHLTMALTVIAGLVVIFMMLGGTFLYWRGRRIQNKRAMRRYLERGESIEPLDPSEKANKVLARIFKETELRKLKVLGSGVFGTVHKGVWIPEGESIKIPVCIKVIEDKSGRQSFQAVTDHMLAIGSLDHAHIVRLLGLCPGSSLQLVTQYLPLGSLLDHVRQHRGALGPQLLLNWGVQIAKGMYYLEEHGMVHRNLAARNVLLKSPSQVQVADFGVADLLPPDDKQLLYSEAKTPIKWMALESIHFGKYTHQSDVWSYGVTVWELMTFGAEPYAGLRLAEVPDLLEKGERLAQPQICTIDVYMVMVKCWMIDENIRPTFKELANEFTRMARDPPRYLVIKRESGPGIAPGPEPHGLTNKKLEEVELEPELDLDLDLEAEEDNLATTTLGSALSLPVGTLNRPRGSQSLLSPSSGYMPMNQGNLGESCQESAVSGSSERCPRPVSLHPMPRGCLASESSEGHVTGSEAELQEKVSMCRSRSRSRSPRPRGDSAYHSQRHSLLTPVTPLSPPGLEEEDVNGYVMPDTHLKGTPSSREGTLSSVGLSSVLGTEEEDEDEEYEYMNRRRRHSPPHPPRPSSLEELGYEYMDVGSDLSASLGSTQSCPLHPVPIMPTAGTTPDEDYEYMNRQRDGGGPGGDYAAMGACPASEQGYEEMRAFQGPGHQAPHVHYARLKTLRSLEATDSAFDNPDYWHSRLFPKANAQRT
Sequence of IGF1R (P08069 whole entry): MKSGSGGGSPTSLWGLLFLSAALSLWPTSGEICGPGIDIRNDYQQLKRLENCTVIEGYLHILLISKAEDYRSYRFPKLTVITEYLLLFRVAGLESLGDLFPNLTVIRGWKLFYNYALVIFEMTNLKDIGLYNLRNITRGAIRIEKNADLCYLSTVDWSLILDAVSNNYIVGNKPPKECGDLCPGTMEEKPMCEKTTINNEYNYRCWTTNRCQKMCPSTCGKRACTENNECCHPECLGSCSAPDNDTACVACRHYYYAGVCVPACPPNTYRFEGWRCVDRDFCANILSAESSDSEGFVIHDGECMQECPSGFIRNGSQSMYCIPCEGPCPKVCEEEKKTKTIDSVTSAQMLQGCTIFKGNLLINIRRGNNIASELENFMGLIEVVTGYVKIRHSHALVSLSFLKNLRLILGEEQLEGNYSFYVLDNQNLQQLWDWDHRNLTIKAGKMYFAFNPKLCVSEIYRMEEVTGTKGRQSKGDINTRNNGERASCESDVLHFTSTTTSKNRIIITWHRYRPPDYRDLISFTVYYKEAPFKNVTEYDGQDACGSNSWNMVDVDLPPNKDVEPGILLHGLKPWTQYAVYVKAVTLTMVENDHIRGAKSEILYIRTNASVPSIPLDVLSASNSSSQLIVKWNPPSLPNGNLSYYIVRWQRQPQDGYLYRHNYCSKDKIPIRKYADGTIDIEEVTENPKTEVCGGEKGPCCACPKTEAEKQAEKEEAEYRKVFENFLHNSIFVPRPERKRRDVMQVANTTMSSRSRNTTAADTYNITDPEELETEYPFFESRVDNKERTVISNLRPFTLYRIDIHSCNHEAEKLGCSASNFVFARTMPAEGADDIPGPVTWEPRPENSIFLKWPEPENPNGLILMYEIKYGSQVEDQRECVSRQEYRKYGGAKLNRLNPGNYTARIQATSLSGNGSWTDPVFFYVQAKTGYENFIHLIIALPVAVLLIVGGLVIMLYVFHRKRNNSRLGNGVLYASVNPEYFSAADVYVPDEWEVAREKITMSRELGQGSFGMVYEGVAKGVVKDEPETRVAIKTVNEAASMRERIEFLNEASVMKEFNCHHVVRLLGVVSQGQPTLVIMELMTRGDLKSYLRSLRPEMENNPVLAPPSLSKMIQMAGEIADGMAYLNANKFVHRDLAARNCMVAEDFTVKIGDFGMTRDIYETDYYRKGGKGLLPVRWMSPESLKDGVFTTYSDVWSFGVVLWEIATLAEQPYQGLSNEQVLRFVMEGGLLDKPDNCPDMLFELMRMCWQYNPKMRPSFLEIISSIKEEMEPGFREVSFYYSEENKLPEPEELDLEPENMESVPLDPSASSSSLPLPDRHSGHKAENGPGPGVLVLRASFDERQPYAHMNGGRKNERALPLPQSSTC

Turning to `CNS(=O)(=O)c1ccc(N(C)C)c(Nc2nc(C)nc3cc(OC)c(OC)cc23)c1` [compound 15, 3-((6,7-dimethoxy-2-methylquinazolin-4-yl)amino)-4-(dimethylamino)-N-methylbenzenesulfonamide], the inhibition at 1 µM on NDR2 was determined as 6%; on ERBB3, 16%; at SgK110, 0%; on PIK3CA(H1047Y), 21%; at MRCKA, 0%; on HPK1 it was 0%. The inhibition at 1 µM at MYO3A came out at 0%; at EPHA4 it was 0%; on PAK1 it was 1%; on ERBB2 it was 1%; at CAMK2D it was 0%; on PFTAIRE2, 5%. Moreover, the inhibition at 1 µM at IRAK1 worked out at 11%; at PLK4, 23%; at FLT3 it was 10%; at IGF1R, 0%; at LZK it was 16%; on SIK, 13%. Further, the inhibition at 1 µM at BMPR1A came to 0%; at MEK1 it was 18%; at SGK3 it was 19%; at LRRK2 it was 0%; at EPHB3, 0%; on EGFR(G719C) it was 0%.
